From paper PMC7561186, “Rational design of balanced dual-targeting antibiotics with limited resistance” (PLoS Biology, 2020)
Values after ≈ are worked out from the molar mass of the structure shown. Where two headings read alike, the source gives them in different places.

Tested on: S. aureus clinical isolates
Assay: microbe, parasite or virus in culture
Type: cell-based
Settings: Staphylococcus aureus, read-out: MIC

## CC(=O)NC[C@H]1CN(c2ccc(N3CCOCC3)c(F)c2)C(=O)O1 [Linezolid]
MRSA, S. aureus IHMA 1621638, MRSA / VSSA
  MIC: 2 µg/mL (≈ 5.93 µM)
MRSA, S. aureus IHMA 1622252, MRSA / VSSA
  MIC: 4 µg/mL (≈ 11.9 µM)
MRSA, S. aureus IHMA 1622527, MRSA / VSSA
  MIC: 4 µg/mL (≈ 11.9 µM)
MRSA, S. aureus IHMA 1666371, MRSA / VSSA
  MIC: 0.5 µg/mL (≈ 1.48 µM)
MRSA, S. aureus IHMA 1695391, MRSA / VSSA
  MIC: 2 µg/mL (≈ 5.93 µM)
MRSA, S. aureus IHMA 1703428, MRSA / VSSA
  MIC: 2 µg/mL (≈ 5.93 µM)
MRSA, S. aureus IHMA 1720350, MRSA / VSSA
  MIC: 2 µg/mL (≈ 5.93 µM)
MRSA, S. aureus IHMA 1732989, MRSA / VSSA
  MIC: 4 µg/mL (≈ 11.9 µM)
MRSA, S. aureus IHMA 1742231, MRSA / VSSA
  MIC: 2 µg/mL (≈ 5.93 µM)
MRSA, S. aureus IHMA 1766357, MRSA / VSSA
  MIC: 4 µg/mL (≈ 11.9 µM)
MSSA / NRS 12 / VISA, S. aureus IHMA 1308244, NRS12, MSSA / VISA
  MIC: 4 µg/mL (≈ 11.9 µM)
MSSA / NRS 13 / VISA, S. aureus IHMA 1308245, NRS13, MSSA / VISA
  MIC: 2 µg/mL (≈ 5.93 µM)
MSSA / NRS 14 / VISA, S. aureus IHMA 1308246, NRS14, MSSA / VISA
  MIC: 2 µg/mL (≈ 5.93 µM)
MSSA / NRS 17 / VISA, S. aureus IHMA 1308247, NRS17, MSSA / VISA
  MIC: 2 µg/mL (≈ 5.93 µM)
MSSA / NRS 28 / VISA, S. aureus IHMA 1308249, NRS28, MSSA / VISA
  MIC: 0.5 µg/mL (≈ 1.48 µM)
MSSA / NRS 52, S. aureus IHMA 1308252, NRS52, MSSA / VSSA* (*Expected VAN intermediate, confirmed VAN susceptible twice), test date 2018-11-07
  MIC: 1 µg/mL (≈ 2.96 µM)
MSSA / USA100 / VRSA, S. aureus IHMA 672236, VRS6, MSSA / VRSA, USA100
  MIC: 1 µg/mL (≈ 2.96 µM)
MSSA, S. aureus IHMA 1563826, MSSA / VSSA
  MIC: 4 µg/mL (≈ 11.9 µM)
MSSA, S. aureus IHMA 1565492, MSSA / VSSA
  MIC: 2 µg/mL (≈ 5.93 µM)
MSSA, S. aureus IHMA 1569499, MSSA / VSSA
  MIC: 2 µg/mL (≈ 5.93 µM)
MSSA, S. aureus IHMA 1569754, MSSA / VSSA
  MIC: 2 µg/mL (≈ 5.93 µM)
MSSA, S. aureus IHMA 1574202, MSSA / VSSA
  MIC: 2 µg/mL (≈ 5.93 µM)
MSSA, S. aureus IHMA 1575652, MSSA / VSSA
  MIC: 4 µg/mL (≈ 11.9 µM)
MSSA, S. aureus IHMA 1575779, MSSA / VSSA
  MIC: 2 µg/mL (≈ 5.93 µM)
MSSA, S. aureus IHMA 1576329, MSSA / VSSA
  MIC: 4 µg/mL (≈ 11.9 µM)
MSSA, S. aureus IHMA 1577800, MSSA / VSSA
  MIC: 4 µg/mL (≈ 11.9 µM)
MSSA, S. aureus IHMA 1578560, MSSA / VSSA
  MIC: 4 µg/mL (≈ 11.9 µM)
MSSA, S. aureus IHMA 1580233, MSSA / VSSA
  MIC: 2 µg/mL (≈ 5.93 µM)
MSSA, S. aureus IHMA 1580925, MSSA / VSSA
  MIC: 2 µg/mL (≈ 5.93 µM)
MSSA, S. aureus IHMA 1580955, MSSA / VSSA
  MIC: 2 µg/mL (≈ 5.93 µM)
MSSA, S. aureus IHMA 1582586, MSSA / VSSA
  MIC: 8 µg/mL (≈ 23.7 µM)
MSSA, S. aureus IHMA 1582691, MSSA / VSSA
  MIC: 2 µg/mL (≈ 5.93 µM)
MSSA, S. aureus IHMA 1584230, MSSA / VSSA
  MIC: 4 µg/mL (≈ 11.9 µM)
MSSA, S. aureus IHMA 1587279, MSSA / VSSA
  MIC: 1 µg/mL (≈ 2.96 µM)
MSSA, S. aureus IHMA 1591459, MSSA / VSSA
  MIC: 2 µg/mL (≈ 5.93 µM)
MSSA, S. aureus IHMA 1592749, MSSA / VSSA
  MIC: 2 µg/mL (≈ 5.93 µM)
MSSA, S. aureus IHMA 1592751, MSSA / VSSA
  MIC: 4 µg/mL (≈ 11.9 µM)
MSSA, S. aureus IHMA 1594297, MSSA / VSSA
  MIC: 2 µg/mL (≈ 5.93 µM)
MSSA, S. aureus IHMA 1597120, MSSA / VSSA
  MIC: 4 µg/mL (≈ 11.9 µM)
MSSA, S. aureus IHMA 1597125, MSSA / VSSA
  MIC: 2 µg/mL (≈ 5.93 µM)
MSSA, S. aureus IHMA 1599157, MSSA / VSSA
  MIC: 2 µg/mL (≈ 5.93 µM)
MSSA, S. aureus IHMA 1599506, MSSA / VSSA
  MIC: 4 µg/mL (≈ 11.9 µM)
MSSA, S. aureus IHMA 1602078, MSSA / VSSA
  MIC: 4 µg/mL (≈ 11.9 µM)
MSSA, S. aureus IHMA 1604586, MSSA / VSSA
  MIC: 2 µg/mL (≈ 5.93 µM)
MSSA, S. aureus IHMA 1604609, MSSA / VSSA
  MIC: 2 µg/mL (≈ 5.93 µM)
MSSA, S. aureus IHMA 1609919, MSSA / VSSA
  MIC: 2 µg/mL (≈ 5.93 µM)
MSSA, S. aureus IHMA 1622864, MSSA / VSSA
  MIC: 2 µg/mL (≈ 5.93 µM)
MSSA, S. aureus IHMA 1626392, MSSA / VSSA
  MIC: 2 µg/mL (≈ 5.93 µM)
MSSA, S. aureus IHMA 1713793, MSSA / VSSA
  MIC: 2 µg/mL (≈ 5.93 µM)
